Experiments:
[1] = tested on: MAXFTN449 organoid, breast cancer (triple negative); assay: 3D clonogenic assay in patient derived organoids; type: cell-based, human; details: for Combination activity 5 μM Compound 1 (cAUC % reduction): chemotherapy dose titration + 5 μM Compound 1 vs chemotherapy alone; for Combination activity 20 μM Compound 1 (cAUC % reduction): chemotherapy dose titration + 20 μM Compound 1 vs chemotherapy alone
Method: (§1) Five tumor cell lines (4T1.2, A549, EMT6, NCI-H460, and HT29) were treated with a range of paclitaxel or 5-FU concentrations in the presence of dimethlylsulfoxide (DMSO), 5 μM Compound 1, or 20 μM Compound 1. Cells were imaged 4 days after treatment and percent confluence was assessed by image quantification. EC50 values for cell confluence were used to assess chemotherapy potency. Eleven patient-derived tumor organoids (MAXFTN449, MAXFTN2990, PAXF1657, PAXF2131, CXF1256, CXF2129, CXF2061, LXFE2478, LXFE690, LXFA677, LXFA644) were seeded in a 3D matrix and treated with a range of paclitaxel, 5-FU, SN38, Gemcitabine, oxaliplatin, and carboplatin concentrations in the presence of DMSO, 5 μM Compound 1, or 20 μM Compound 1. After 8 to 13 days in culture, colonies were stained, imaged, and counted. A dose response curve was generated for chemotherapy alone or chemotherapy in combination with 5 or 20 μM Compound 1. Combination activity was defined as a percentage of the area under the chemotherapy dose response curve (cAUC) for Compound 1 combination groups compared to the cAUC of chemotherapy alone.
(§2) For combination experiments, working stock solutions of all compounds were prepared in DMSO at concentrations of 660-fold the highest test concentration used and stored at −20° C. Platin compounds were prepared freshly on each treatment day. On each day of an experiment, an aliquot of the working stock solutions was used and stored at room temperature prior to and during treatment. First, 1:2 dilutions of 660-fold concentrated working stocks were prepared in DMSO (in case of monotherapy controls), or equal amounts of the compound working stocks were mixed (in case of drug combinations). Then, different dilutions of these 330-fold concentrated solutions were prepared in DMSO to give an 8×2 matrix combination layout with conditions. The DMSO dilutions were further diluted […] into cell culture medium (IMDM, supplemented with 20% (v/v) fetal bovine serum, and 50 μg/mL gentamicin) in an intermediate dilution plate. Finally, 10 μL taken from the intermediate dilution plate were transferred to 140 μL of cells and medium per well of the final assay plate. Thus, the DMSO dilutions used for the mono- and the combination-treatment were diluted 1:660, and the DMSO concentration in the assay was […].
(§3) Tumors were passaged as subcutaneous xenografts in NMRI nu/nu mice. At a tumor volume of 400 to 1000 mm^3, tumor-bearing mice were euthanized, and tumors were collected under sterile conditions without delay. Tumors were mechanically disaggregated and subsequently incubated with an enzyme cocktail consisting of collagenase type IV (41 U/mL), DNase I (125 U/mL), hyaluronidase type III (100 U/mL), and dispase II (1 U/mL) in RPMI 1640 medium at 37° C. for 60 to 120 minutes. Cells were passed through sieves of 100 μm and 40 μm mesh size, and washed with RPMI 1640 medium. The percentage of viable cells was determined in a Neubauer-hemocytometer using trypan blue exclusion. Aliquots of the cells were frozen down and stored in liquid nitrogen vapor phase. On each day of an experiment, a frozen aliquot of tumor cells was thawed and used for preparation of assay plates.
(§4) The clonogenic assay was carried out in a 96 well plate format using ultra low attachment plates. For each test, plates were prepared as follows: each test well contained a layer of semi-solid medium with tumor cells (50 μL), and a second layer of medium supernatant with or without test compound (100 μL). The cell layer consisted of […] to 12.5×10^3 tumor cells per well, which were seeded in 50 μL/well cell culture medium (IMDM, supplemented with 20% (v/v) fetal bovine serum, 50 μg/mL gentamicin, and 0.4% (w/v) agar). After 24 hours, the soft-agar layer was covered with 90 μL of the same culture medium without agar, and 10 μL of control medium or test compound after serial dilution in DMSO for the duration of the experiment (continuous exposure, 100 μL drug overlay).

[2] = tested on: MAXFTN2990 organoid, breast cancer (triple negative); assay: 3D clonogenic assay in patient derived organoids; type: cell-based, human; details: for Combination activity 5 μM Compound 1 (cAUC % reduction): chemotherapy dose titration + 5 μM Compound 1 vs chemotherapy alone; for Combination activity 20 μM Compound 1 (cAUC % reduction): chemotherapy dose titration + 20 μM Compound 1 vs chemotherapy alone
Method: as §1, §2, §3, §4

[3] = tested on: CXF2129 organoid, colon cancer; assay: 3D clonogenic assay in patient derived organoids; type: cell-based, human
Method: as §1, §2, §3, §4

[4] = tested on: CXF1256 organoid, colon cancer; assay: 3D clonogenic assay in patient derived organoids; type: cell-based, human
Method: as §1, §2, §3, §4

[5] = tested on: CXF2061 organoid, colon cancer; assay: 3D clonogenic assay in patient derived organoids; type: cell-based, human
Method: as §1, §2, §3, §4

EMT6 cell line = assay: 2D cell line viability assay (cell confluence); type: cell-based, murine; details: Mus musculus, EMT6, 96 h, 4 days
Excerpt: (§5) FIGS. 4A-4E illustrate the effects of Compound 1 on the Potency of Paclitaxel in a 2D Cell Line Viability Assay. […] Data points indicate mean and Standard Deviation of 2 biological replicates. Graphs are representative of at least 2 independent experiments. […] Abbreviations: DMSO, dimethylsulfoxide.

4T1.2 cell line = assay: 2D cell line viability assay (cell confluence); type: cell-based, murine; details: Mus musculus, 4T1.2, 96 h
Excerpt: as §5

A549 cell line = assay: 2D cell line viability assay (cell confluence); type: cell-based; details: Homo sapiens, A549, 96 h, 4 days
Excerpt: as §5

NCI-H460 cell line = assay: 2D cell line viability assay (cell confluence); type: cell-based; details: Homo sapiens, NCI-H460, 96 h, 4 days
Excerpt: as §5

HT29 cell line = assay: 2D cell line viability assay (cell confluence); type: cell-based; details: Homo sapiens, HT-29, 96 h, 4 days
Excerpt: as §5

[6] = tested on: LXFE2478 organoid, NSCLC (squamous subtype); assay: 3D clonogenic assay in patient derived organoids; type: cell-based, human; details: for Combination activity 20 μM Compound 1 (cAUC % reduction): chemotherapy dose titration + 20 μM Compound 1 vs chemotherapy alone
Method: as §1, §2, §3, §4

[7] = tested on: PAXF1657 organoid, pancreatic cancer; assay: 3D clonogenic assay in patient derived organoids; type: cell-based, human; details: for Combination activity 20 μM Compound 1 (cAUC % reduction): chemotherapy dose titration + 20 μM Compound 1 vs chemotherapy alone
Method: as §1, §2, §3, §4

[8] = tested on: LXFE690 organoid, NSCLC (squamous subtype); assay: 3D clonogenic assay in patient derived organoids; type: cell-based, human; details: for Combination activity 20 μM Compound 1 (cAUC % reduction): chemotherapy dose titration + 20 μM Compound 1 vs chemotherapy alone
Method: as §1, §2, §3, §4

[9] = tested on: PAXF2131 organoid, Pancreatic cancer; assay: 3D clonogenic assay in patient derived organoids; type: cell-based, human; details: for Combination activity 20 μM Compound 1 (cAUC % reduction): chemotherapy dose titration + 20 μM Compound 1 vs chemotherapy alone
Method: as §1, §2, §3, §4

[10] = chemotherapy dose titration + 5 μM Compound 1 vs chemotherapy alone
[11] = chemotherapy dose titration + 20 μM Compound 1 vs chemotherapy alone
[12] = in the presence of 5 μM Compound 1
[13] = in the presence of 20 μM Compound 1

CCc1c2c(nc3ccc(O)cc13)-c1cc3c(c(=O)n1C2)COC(=O)[C@]3(O)CC [SN38]
Combination activity 5 μM Compound 1 (cAUC % reduction) [1]: 58% | Combination activity 20 μM Compound 1 (cAUC % reduction) [1]: 46% | Combination activity 5 μM Compound 1 (cAUC % reduction) [2]: 57% | Combination activity 20 μM Compound 1 (cAUC % reduction) [2]: 74% | Combination activity 5 μM Compound 1 (cAUC % reduction) [3, 10]: 44% | Combination activity 20 μM Compound 1 (cAUC % reduction) [3, 11]: 33% | Combination activity 5 μM Compound 1 (cAUC % reduction) [4, 10]: 90% | Combination activity 20 μM Compound 1 (cAUC % reduction) [4, 11]: 91% | Combination activity 5 μM Compound 1 (cAUC % reduction) [5, 10]: 22% | Combination activity 20 μM Compound 1 (cAUC % reduction) [5, 11]: 26%

CC(=O)O[C@H]1C(=O)[C@@]2(C)[C@H]([C@H](OC(=O)c3ccccc3)[C@]3(O)C[C@H](OC(=O)[C@H](O)[C@@H](NC(=O)c4ccccc4)c4ccccc4)C(C)=C1C3(C)C)[C@]1(OC(C)=O)CO[C@@H]1C[C@@H]2O (relative stereo) [Paclitaxel, (1S,2S,3R,4S,7R,9S,10S,12R,15S)-4,12-diacetoxy-15-{[(2R,3S)-3-(benzoylamino)-2-hydroxy-3-phenylpropanoyl]oxy}-1,9-dihydroxy-10,14,17,17-tetramethyl-11-oxo-6-oxatetracyclo[11.3.1.0˜3,10˜0.0˜4,7˜]heptadec-13-en-2-yl rel-benzoate]
EC50 (EMT6 cell line; in the absence of Compound 1): 19 nM | EC50 (EMT6 cell line; [12]): 5.5 nM | EC50 (EMT6 cell line; [13]): 1.9 nM | EC50 (4T1.2 cell line; 4 days after treatment, in the absence of Compound 1): 48 nM | EC50 (4T1.2 cell line; 4 days, in the presence of 5 μM Compound 1): 16 nM | EC50 (4T1.2 cell line; 4 days, in the presence of 20 μM Compound 1): 3.4 nM | EC50 (A549 cell line; in the absence of Compound 1): 1.6 nM | EC50 (A549 cell line; [12]): 1.6 nM | EC50 (A549 cell line; [13]): 1 nM | EC50 (NCI-H460 cell line; in the absence of Compound 1): 6.5 nM | EC50 (NCI-H460 cell line; [12]): 2.9 nM | EC50 (NCI-H460 cell line; [13]): 2.3 nM | EC50 (HT29 cell line; in the absence of Compound 1): 1.8 nM | EC50 (HT29 cell line; [12]): 1.9 nM | EC50 (HT29 cell line; [13]): 1.8 nM | Combination activity 5 μM Compound 1 (cAUC % reduction) [1]: 57% | Combination activity 20 μM Compound 1 (cAUC % reduction) [1]: 42% | Combination activity 20 μM Compound 1 (cAUC % reduction) ([1]; listed as paclitaxel): 42% | Combination activity 5 μM Compound 1 (cAUC % reduction) [2]: 63% | Combination activity 20 μM Compound 1 (cAUC % reduction) [2]: 77% | Combination activity 20 μM Compound 1 (cAUC % reduction) ([2]; listed as paclitaxel): 77% | Combination activity 5 μM Compound 1 (cAUC % reduction) [6, 10]: 46% | Combination activity 20 μM Compound 1 (cAUC % reduction) [6]: 45% | Combination activity 20 μM Compound 1 (cAUC % reduction) ([6]; listed as paclitaxel): 45% | Combination activity 5 μM Compound 1 (cAUC % reduction) [7, 10]: 50% | Combination activity 20 μM Compound 1 (cAUC % reduction) [7]: 64% | Combination activity 20 μM Compound 1 (cAUC % reduction) ([7]; listed as paclitaxel): 64% | Combination activity 5 μM Compound 1 (cAUC % reduction) [8, 10]: 87% | Combination activity 20 μM Compound 1 (cAUC % reduction) [8]: 94% | Combination activity 20 μM Compound 1 (cAUC % reduction) ([8]; listed as paclitaxel): 94% | Combination activity 5 μM Compound 1 (cAUC % reduction) [9, 10]: 58% | Combination activity 20 μM Compound 1 (cAUC % reduction) [9]: 71% | Combination activity 20 μM Compound 1 (cAUC % reduction) ([9]; listed as paclitaxel): 71%

Source: patent US20240165112A1, “THERAPY FOR THE TREATMENT OF CANCER” (Bristol-Myers Squibb Company, priority 2022, published 2024)
